According to the NIST ThermoML archive (doi:10.1021/je300134c):
Numbers after ± are expanded uncertainties.

Columns and labels:
[1] = Liquid; for speed of sound: Sing-around technique in a fixed-path interferometer; for mass density: Vibrating tube method
[2] = xn = mol fraction of the nth substance listed; conditions: 101 kPa, Liquid, x2 = 0; for mass density: Vibrating tube method; for speed of sound: Sing-around technique in a fixed-path interferometer

SMILES	speed of sound ([1]; 288.15 K, 101.33 kPa)	mass density ([1]; 288.15 K, 101.33 kPa)	speed of sound ([1]; 298.15 K, 101.33 kPa)	mass density ([1]; 298.15 K, 101.33 kPa)	speed of sound ([1]; 308.15 K, 101.33 kPa)	mass density ([1]; 308.15 K, 101.33 kPa)	speed of sound ([1]; 318.15 K, 101.33 kPa)	mass density ([1]; 318.15 K, 101.33 kPa)	speed of sound ([1]; 328.15 K, 101.33 kPa)	mass density ([1]; 328.15 K, 101.33 kPa)	speed of sound ([1]; 338.15 K, 101.33 kPa)	mass density ([1]; 338.15 K, 101.33 kPa)	speed of sound ([2]; 318.15 K)	speed of sound ([2]; 328.15 K)	mass density ([2]; 328.15 K)	speed of sound ([2]; 338.15 K)	mass density ([2]; 338.15 K)	also measured
CCCC[n+]1ccn(CC)c1.O=S(=O)([O-])C(F)(F)F	1396.3 ± 2.1 m/s	1269.97 ± 1.4 kg/m3	1373.1 ± 2.1 m/s	1262.21 ± 1.4 kg/m3	1350.6 ± 2.1 m/s	1254.44 ± 1.4 kg/m3	1328.6 ± 2.1 m/s	1246.71 ± 1.4 kg/m3	1307.1 ± 2.1 m/s	1239.01 ± 1.4 kg/m3	1286.1 ± 2.1 m/s	1231.35 ± 1.4 kg/m3	–	–	–	–	–	speed of sound ([1]; 278.15 K, 101.33 kPa): 1420.6 ± 2.1 m/s; mass density ([1]; 278.15 K, 101.33 kPa): 1278.02 ± 1.5 kg/m3
CCCC[N+]1(C)CCCC1.O=S(=O)([O-])C(F)(F)F [1-butyl-1-methylpyrrolidinium trifluoromethanesulfonate]	1486.1 ± 1.2 m/s	1259.74 ± 0.45 kg/m3	1461.4 ± 1.2 m/s	1252.26 ± 0.44 kg/m3	1437.8 ± 1.2 m/s	1245.09 ± 0.44 kg/m3	1414.9 ± 1.2 m/s	1237.94 ± 0.43 kg/m3	1392.7 ± 1.2 m/s	1230.81 ± 0.42 kg/m3	1371.1 ± 1.2 m/s	1223.73 ± 0.42 kg/m3	–	–	–	–	–	speed of sound ([1]; 278.15 K, 101.33 kPa): 1513.5 ± 1.2 m/s; mass density ([1]; 278.15 K, 101.33 kPa): 1267.23 ± 0.45 kg/m3
CCCCn1cc[n+](C)c1.O=S(=O)([O-])C(F)(F)F [1-butyl-3-methylimidazolium trifluoromethanesulfonate]	1416 ± 2.1 m/s	1304.56 ± 1.5 kg/m3	1393 ± 2.1 m/s	1296.67 ± 1.5 kg/m3	1370.7 ± 2.1 m/s	1288.78 ± 1.5 kg/m3	1349 ± 2.1 m/s	1280.95 ± 1.5 kg/m3	1327.8 ± 2.1 m/s	1273.16 ± 1.4 kg/m3	1307 ± 2.1 m/s	1265.44 ± 1.4 kg/m3	–	–	–	–	–	–
O [water]	–	–	–	–	–	–	–	–	–	–	–	–	–	–	–	–	–	mass density ([1]; 278.15 K, 101 kPa): 999.99 ± 0.03 kg/m3; speed of sound ([1]; 318.15 K, 101 kPa): 1536.8 ± 0.76 m/s; speed of sound ([1]; 328.15 K, 101 kPa): 1547.7 ± 0.76 m/s; mass density ([1]; 328.15 K, 101 kPa): 985.7 ± 0.04 kg/m3; speed of sound ([1]; 338.15 K, 101 kPa): 1553.6 ± 0.76 m/s; mass density ([1]; 338.15 K, 101 kPa): 980.56 ± 0.04 kg/m3
O [water] + CCCC[N+]1(C)CCCC1.O=S(=O)([O-])C(F)(F)F	–	–	–	–	–	–	–	–	–	–	–	–	1536.8 ± 0.76 m/s	1547.7 ± 0.76 m/s	985.7 ± 0.04 kg/m3	1553.6 ± 0.76 m/s	980.56 ± 0.04 kg/m3	mass density ([2]; 278.15 K): 999.99 ± 0.03 kg/m3
O [water] + CCCC[n+]1ccn(CC)c1.O=S(=O)([O-])C(F)(F)F	–	–	–	–	–	–	–	–	–	–	–	–	1536.8 ± 0.76 m/s	1547.7 ± 0.76 m/s	985.7 ± 0.04 kg/m3	1553.6 ± 0.76 m/s	980.56 ± 0.04 kg/m3	mass density ([2]; 278.15 K): 999.99 ± 0.03 kg/m3
O [water] + CCCCn1cc[n+](C)c1.O=S(=O)([O-])C(F)(F)F	–	–	–	–	–	–	–	–	–	–	–	–	1536.8 ± 0.76 m/s	1547.7 ± 0.76 m/s	985.7 ± 0.04 kg/m3	1553.6 ± 0.76 m/s	980.56 ± 0.04 kg/m3	–
